The values that follow come from patent US10328092B2, “Methods and compositions for treatment of drug addiction” (The Royal Institution for the Advancement of Learning / …, priority 2015, dated 2019).

The subject of assay [1] is primary rat microglia cultures. The assay is described as follows: TNFα mRNA in primary rat microglia cultures. It is filed as cell-based. How it is done: For tissue, total RNA from the ventral striatum was extracted and isolated by RNAqueous-4PCR total RNA isolation kit (Ambion, AM1914), according to manufacturer's instructions. For microglia and astrocyte cultures, total RNA was isolated by RNeasy kit (Qiagen, 74136). For all sample types, 0.5 μg of total RNA was used for cDNA synthesis with Quantitect Reverse Transcription Kit (Qiagen, 205313), and quantitative RT-PCR was performed with Fast SYBR-Green Master Mix (Applied Biosystems) detected by StepOne Plus RealTime PCR system (Applied Biosystems). The sequences of qPCR primers used for mRNA quantification in this study were obtained from Integrated DNA Technologies, and are as follows: mouse TNFα forward, […] (SEQ ID NO: 1) [200 nM]; mouse TNFα reverse, […] (SEQ ID NO: 2) [200 nM]; mouse GAPDH forward, […] (SEQ ID NO: 3) [300 nM]; mouse GAPDH reverse, […] (SEQ ID NO: 4) [300 nM]; rat TNFα forward, […] (SEQ ID NO: 1) [600 nM]; rat TNFα reverse, […] (SEQ ID NO: 5) [600 nM]; rat cyclophilin forward, […] (SEQ ID NO: 6) [500 nM]; rat cyclophilin reverse, […] (SEQ ID NO: 7) [500 nM]. After 40 cycles, the Ct values were determined. To normalize the samples, ΔCt between TNFα and GADPH or cyclophilin Ct values was calculated. The x-fold difference in expression between the different treatments was then determined by subtraction of the ΔCt values and termed ΔΔCt. Finally, the total change was calculated as 2-ΔΔct and the relative amount compared with control samples was deducted.
Mixed microglia-astrocyte primary cultures were prepared from the striatum of postnatal rats (day 0), essentially as described (Beattie et al., 2002). Briefly, tissue was dissociated by […], and cells were seeded in glia media (MEM containing 5% FBS, 1.5% high sucrose MEM and 0.1% glutamax) on culture flasks (Corning) coated with poly-D lysine (Sigma) and placed in a humidified incubator at 37 C with 5% CO2. Neurons were removed by mechanical disruption and the medium was changed at day 1, and every 5-7 days after. […]

For the next assay, the system named is adult microglial cells. The assay is described as follows: TNFα mRNA in cultured adult mouse microglia. It is filed as cell-based. Conditions: dopamine 0.1 μm, 3 hours; not significant p=0.057. How it is done:
(SEQ ID NO: 1) [200 nM]; mouse TNFα reverse, […] (SEQ ID NO: 2) [200 nM]; mouse GAPDH forward, […] (SEQ ID NO: 3) [300 nM]; mouse GAPDH reverse, […] (SEQ ID NO: 4) [300 nM]; rat TNFα forward, […] (SEQ ID NO: 1) [600 nM]; rat TNFα reverse, […] (SEQ ID NO: 5) [600 nM]; rat cyclophilin forward, […] (SEQ ID NO: 6) [500 nM]; rat cyclophilin reverse, […] (SEQ ID NO: 7) [500 nM]. After 40 cycles, the Ct values were determined.
Adult male C57BL/6 mice (8-12 weeks) underwent cardiac perfusion with Hank's Balanced Salt Solution (HBSS) and whole brains were removed. Cortices and striata were dissected, cut in to small pieces and subjected to enzymatic digestion with the Neural Tissue Dissociation Kit (P) (Miltenyi Biotech, US cat no. 130-092-628), as per manufactures instructions. Tissue was homogenised and resuspended in 35% isotonic Percoll, overlayed with HBSS and spun at 400 g for 45 mins for the removal of myelin. Pure populations of microglial cells were obtained through magnetic bead cell sorting using CD11b microbeads (Miltenyi, cat no. 130-093-634). Aliquots from positive and negative bead selected fractions were removed for cell staining to assess cell purity. […] Cells were acquired using a BD FACS Canto II and analyzed using BD FACSDiva software. […]

Assay [2] deals with primary rat astrocyte cultures. The following applies: dopamine 0.1 μm with ascorbic acid, 3 hours. How it is done:
For tissue, total RNA from the ventral striatum was extracted and isolated by RNAqueous-4PCR total RNA isolation kit (Ambion, AM1914), according to manufacturer's instructions. For microglia and astrocyte cultures, total RNA was isolated by RNeasy kit (Qiagen, 74136). For all sample types, 0.5 μg of total RNA was used for cDNA synthesis with Quantitect Reverse Transcription Kit (Qiagen, 205313), and quantitative RT-PCR was performed with Fast SYBR-Green Master Mix (Applied Biosystems) detected by StepOne Plus RealTime PCR system (Applied Biosystems). The sequences of qPCR primers used for mRNA quantification in this study were obtained from Integrated DNA Technologies, and are as follows: mouse TNFα forward, […] (SEQ ID NO: 1) [200 nM]; mouse TNFα reverse, […] (SEQ ID NO: 2) [200 nM]; mouse GAPDH forward, […] (SEQ ID NO: 3) [300 nM]; mouse GAPDH reverse, […] (SEQ ID NO: 4) [300 nM]; rat TNFα forward, […] (SEQ ID NO: 1) [600 nM]; rat TNFα reverse, […] […] After 40 cycles, the Ct values were determined. To normalize the samples, ΔCt between TNFα and GADPH or cyclophilin Ct values was calculated. The x-fold difference in expression between the different treatments was then determined by subtraction of the ΔCt values and termed ΔΔCt. Finally, the total change was calculated as 2-ΔΔct and the relative amount compared with control samples was deducted. […]

SMILES strings stand for the structures.

For the compound `Cl.NCCc1ccc(O)c(O)c1` [dopamine, dopamine hydrochloride], the “TNFα mRNA in microglia cultures” value in assay [1] was “significantly increased”. The “TNFα mRNA, cultured adult microglia” value in the assay with adult microglial cells is listed as 160 % of control. Besides, the “TNFα production in astrocytes” value in assay [2] is listed as “does not alter”.
